Assay results from patent US6013667A, “Benzenesulfonylamine compounds, process for preparing them and pharmaceutical compositions” (Adir Et Compagnie, priority 1997, dated 2000).

How the values were obtained:
[1] = tested on: platelet aggregation induced by the TXA2 agonist, U 46619; test: Platelet aggregation in man (platelet-rich plasma, induced by U 46619); format: cell-based; settings: human PRP, U 46619 0.3 μM, read-out: IC50, inhibition of platelet aggregation induced by U 46619
Experimental: Platelet aggregation in man
Venous blood is obtained from human volunteers who have not taken any aspirin for at least 14 days prior to the experiment. The blood is taken onto sodium citrate (0.109 M) (1 vol. of citrate by 9 vol. of blood). The platelet-rich plasma (PRP) is obtained after centrifugation (20° C.) at 200×g for 10 minutes. The number of platelets is, on average, 250,000 PL/mm^3. The PRP is stored at room temperature until the time of the test and is used within 2 hours of the blood being taken. The antagonists are tested according to the procedure described in Example 19, using U 46619 at a concentration of 0.3 μM.

vascular TP-receptor = test: Determination of the pA2 values of the antagonists towards TXA2 on rabbit saphene vein; design: species or system rabbit (New Zealand); settings: rabbit saphene vein rings, 37° C., U 46619 10^-9 M to 10^-5 M, antagonist 20 minutes
Experimental: Determination of the pA2 Values of the Antagonists Towards TXA2 on Rabbit Saphene Vein
(§1) New Zealand rabbits (2.5 kg) are exsanguinated under anesthesia (pentobarbital, 30 mg/kg) and the saphene veins are rapidly removed and cut into 3-mm rings. These rings are mounted between two hooks in tanks thermostatically adjusted to 37° C., containing physiological saline (composition in mM: 118 NaCl; 25 NaHCO3; 10 glucose; 4.7 KCl; 1.25 CaCl2; 1.19 MgSO4; 1.14 KHPO4).
The physiological saline is bubbled with a mixture of 95% O2 /5% CO2. The lower hook constitutes the fixed point whereas the upper hook is connected to an isometric force sensor. The tissues are placed under a base tension of 1 gram. […]
After mounting, the preparations are left to stand for 90 minutes, with rinsing carried out every 30 minutes. After readjustment of the base tension, a contraction by a single dose of the TXA2 agonist, U 46619 at 10^-5 M, is induced in order to regularize the following contractions. […]
This EC50 is calculated routinely in the following way: the tension values are first converted into percentages relative to the maximum effect and these percentages are then plotted on a graph with the percentages on the Y-axis and the log (concentration) values on the X-axis. […] The concentration corresponding to the half-maximal effect (50%) can readily be calculated using the parameters of the straight line. […]

Rabbit saphene vein = test: Non-endothelium-dependent relaxations in rabbit saphene vein; settings: for IC50: Oryctolagus cuniculus, rabbit saphene vein, contraction with KCl (60 mM), read-out: 50% effective relaxant concentration (IC50)
Experimental: as §1
The physiological saline is bubbled with a mixture of 95% O2 /5% CO2. The lower hook constitutes the fixed point whereas the upper hook is connected to an isometric force sensor. The tissues are placed under a base tension of 1 gram. The pharmacological substances studied are prepared immediately before use. The drugs are dissolved in water or in dimethyl sulfoxide.
This EC50 is calculated routinely in the following way: the tension values are first converted into percentages relative to the maximum effect and these percentages are then plotted on a graph with the percentages on the Y-axis and the log (concentration) values on the X-axis. A linear regression is then carried out on the points between 10% and 90% (which corresponds to the linear part of the sigmoidal curve). The concentration corresponding to the half-maximal effect (50%) can readily be calculated using the parameters of the straight line. After washing and returning to the base line, the organ is placed in contact with the antagonist (8 different concentrations for each organ) for 20 minutes. A second effect/concentration curve is thus produced in the presence of the antagonist and the "treated" EC50 can then be calculated. This thus provides all the elements which allow the pA2 (competitive antagonism) or pD2 (non-competitive angatonism) to be calculated.
Determination of the Non-Endothelium-Dependent Relaxations in Rabbit Saphene Vein
Rabbit saphene veins are prepared and mounted as described in the above example. After stabilization, a contraction with KCl (60 mM) is induced. […] It is calculated as described in the above example.

| Structure (SMILES) | IC50 [1] | pA2 (vascular TP-receptor) | IC50 (Rabbit saphene vein) | inhibition of relaxations by guanylate cyclase inhibitor (in words) (Rabbit saphene vein; relaxations induced by the substances of the invention, ODQ) |
| --- | --- | --- | --- | --- |
| O=C(O)CCc1c(CCO[N+](=O)[O-])ccc2c1CCC(NS(=O)(=O)c1ccc(Cl)cc1)C2 (stereo not shown) [Example 2, 3-{6-[(4-Chlorophenylsulfonyl)amino]-2-(2-nitroxyethyl)-5,6,7,8-tetrahydronaphth-1-yl}propionic acid] | 0.14 µM | 9.5 | 10 µM |  |
| O=C(O)CCc1c(CO[N+](=O)[O-])ccc2c1CCC(NS(=O)(=O)c1ccc(Cl)cc1)C2 (stereo not shown) [Example 4, 3-[6-(4-Chlorophenylsulfonyl)amino-2-nitroxymethyl-5,6,7,8-tetrahydronaphth-1-yl]propionic acid] | 0.14 µM |  |  |  |
| O=c1onc2cnc3ccccc3n12 [ODQ, reference compound] |  |  |  | capable of inhibiting relaxations |
| O=C(O)CCc1cc(CCO[N+](=O)[O-])cc2c1CCC(NS(=O)(=O)c1ccc(Cl)cc1)C2 (stereo not shown) [Example 6, 3-{6-[(4-Chlorophenylsulfonyl)amino]-3-(2-nitroxyethyl)-5,6,7,8-tetrahydronaphth-1-yl}propionic acid] |  | 9.8 | 7.7 µM |  |
